The text below walks through data of ChEMBL document CHEMBL2346549, “Vavilosides A1/A2-B1/B2, new furostane glycosides from the bulbs of Allium vavilovii with cytotoxic activity” (Bioorg Med Chem, 2013).

One experiment has as its system WEHI-164. Put plainly: Cytotoxicity against mouse WEHI164 cells assessed as growth inhibition after 72 hrs by MTT assay. The conditions noted are these: WEHI-164, 72 h. In kind it is functional, cell-based.
Another experiment concerns J774. Put plainly: Cytotoxicity against mouse J774 cells assessed as growth inhibition after 72 hrs by MTT assay. The conditions noted are these: J774, 72 h. The class given is functional, cell-based.

For the compound `C[C@H](CCC1(O)O[C@H]2C[C@H]3[C@@H]4CC=C5C[C@@H](O)C[C@@H](O[C@@H]6OC[C@@H](O)[C@H](O)[C@H]6O[C@@H]6O[C@@H](C)[C@H](O)[C@@H](O)[C@H]6O)[C@]5(C)[C@H]4CC[C@]3(C)[C@H]2[C@@H]1C)CO[C@@H]1O[C@@H](C)[C@H](O)[C@@H](O)[C@H]1O` (mixture of isomers), the IC50 with WEHI-164 amounted to 3.1 µg/mL; in the experiment on J774 it was 3.5 µg/mL.

In the case of `C[C@H](CCC1(O)O[C@H]2C[C@H]3[C@@H]4CC=C5C[C@@H](O)C[C@@H](O[C@@H]6O[C@H](CO)[C@H](O)[C@H](O)[C@H]6O[C@@H]6O[C@@H](C)[C@H](O)[C@@H](O)[C@H]6O)[C@]5(C)[C@H]4CC[C@]3(C)[C@H]2[C@@H]1C)CO[C@@H]1O[C@@H](C)[C@H](O)[C@@H](O)[C@H]1O` (mixture of isomers), the concentration for half-maximal inhibition (IC50) amounted to 4.7 µg/mL in the experiment with WEHI-164 and 5.1 µg/mL in the experiment with J774.

In the case of `C[C@H](CCC1(O)O[C@H]2C[C@H]3[C@@H]4CC=C5C[C@@H](O)C[C@@H](O[C@@H]6O[C@H](CO)[C@H](O)[C@H](O)[C@H]6O)[C@]5(C)[C@H]4CC[C@]3(C)[C@H]2[C@@H]1C)CO[C@@H]1O[C@H](CO)[C@@H](O)[C@H](O)[C@H]1O[C@@H]1O[C@@H](C)[C@H](O)[C@@H](O)[C@H]1O` (mixture of isomers) [ASCALONICOSIDE A1/A2], the figures for the IC50 with WEHI-164 and with J774 were 3.7 µg/mL and 4 µg/mL, respectively.
